Experimental data: US10806121B2, “Animal litter containing a pheromone composition” (Sergeant's Pet Care Products, LLC, priority 2014, dated 2020)

Columns and labels:
[1] = tested on: cats; assay: Study 2: behavior scores of paired unfamiliar cats, CON litter Day 1 then RP litter Day 2; type: in vivo; design: litter box weight, RP after / litter box weight, Change (RP): unit not given here; details: for Average aggression score by pair, Day 2 (RP): total possible 48
Method: During the studies, cat behavior was captured on video for the duration of the 24- or 48-hour period depending on the specific study. Red lights were used at night to allow for continuous observation. A scan sampling method was used to record cat behaviors each 5 minutes. The recorded videos were subsequently reviewed and analyzed in each 5-minute scan sample, with tape playing 30 frames per second. At each 5-minute time point, each cat was categorized as anxious or relaxed. Aggression or litter box usage occurred between 5-minute periods were also noted. Because each scan sample is of 5-minute period, a total of 24 observations for each individual behavior are possible for each 2 hours. The instances of an individual behavior (An; n=1, 2, 3, . . . 24) in each 5-minute period were totaled for instances in each 2 hours (Bm=ΣAn, n=1, 2, 3, . . . 24; m=1, 2, 3, . . . 12) over 24 hours. The behavioral score for each 2-hour period is ΣAn/24 (n=1, 2, 3, . . . , 24). A behavioral score for a 24-hour period is ΣBm/12 (m=1, 2, 3, . . . 12). Among all behavior assessed, aggression, in-litter-box and anxiety were scored as yes or no during each 5 minutes (An=1 or 0; n=1, 2, 3, . . . 24). In addition, anxiety was measured as a percentage of the total time that the cat was experiencing anxiety. As such the anxiety related behavioral score for a 24-hour period is 0.347×ΣBm (%) (Bm=ΣAn(%), n=1, 2, 3, . . . 24; m=1, 2, 3, . . . 12), which reflects the percentage of time over 24 hours that the cats are experiencing anxiety. Moreover, when ranking cat pairs based on their level of aggression, the sum of the aggression scores of the individual cats in the pair was used to rank the cat pairs. Behavior data (behavioral scores) were further analyzed by Least Squares Analysis of variance using SAS (2011, SAS Inst., Inc., Cary, N.C.) software and the p-diff general linear model procedures to assess treatment differences within each time period. This statistical model included effects of treatment (TRT), cat-pair within treatment (TRT*CAT), time (HR), treatment by time (TRT*HR) and residual error (SE; used to test remaining effects). The previous study established that cats are attracted to litter treated with 2-methylbut-2-enal. In this study, 48 cats were used to determine the effect of litter treated with 2-methylbut-2-enal (RP) to the cat's various behaviors listed in Table 5. Litter was prepared in two batches, by mixing beads about 0.065″ in length both with and without 2-methylbut-2-enal. Blank beads were mixed thoroughly into one batch of litter so that the litter comprised about 3% (w/w) beads to form the control litter (CON). Similarly, beads containing a pheromone composition comprising 0.02% (w/w) 2-methylbut-2-enal (formed in accordance with Example 2 or 3) were mixed thoroughly into the other batch of litter so that the litter also comprised 3% (w/w) beads to form the treated litter (RP). Each batch of the litter was divided into 3 lb. aliquots that were ready to be tested. The 48 cats were randomly grouped into 24 same-sex pairs, which were divided into two groups with 12 pairs in each. The cats of each pair had either been housed individually or in groups of two previously, but had not been placed together prior to this study. As such, each cat was made sure to pair with an unfamiliar cat for the duration of the study. The first 12 pairs of two unfamiliar cats were tested over a 48-hour period. Subsequently, all chambers used were sanitized and aired out, and then the second group of 12 pair of cats was tested. Each pair of cats was placed in a kennel containing one food dish, one water dish, and one litter box. […]

[2] = tested on: cats; assay: Example 6: animal litter composition with molded particles for use with cats; type: in vivo; details: animal litter composition comprising about 0.0004% to about 0.0006% (w/w) 2-methylbut-2-enal; most evident in the first 6-8 hours
Source text: An animal litter composition comprising a pheromone composition can be prepared by first forming molded particles from a shaped polymeric matrix prepared in accordance with Example 4 or 5, wherein the molded particles comprise a pheromone composition comprising 2-methylbut-2-enal. The molded particles can then be combined with, mixed into, or otherwise incorporated into litter material upon use of the litter. An animal litter composition of about 2 lbs. to about 6 lbs. will comprise between about 0.01% and about 15% (w/w) molded particles (the molded particles comprising about 0.02% (w/w) 2-methylbut-2-enal) in order to be effective in alleviating litter dominant behavior and associated aggression and anxiety in cats exposed to the pheromone composition as released from the litter. For example, an animal litter comprising about 2% to about 3% molded particles will result in the litter comprising between about 0.0004% (w/w) and about 0.0006% (w/w) 2-methylbut-2-enal. Accordingly, it will be observed that an animal litter composition comprising about 0.0004% to about 0.0006% (w/w) 2-methylbut-2-enal will elicit a positive behavior modification in cats, which behavior modification can last at least 24 hours, and is most evident in the first 6-8 hours following exposure of the animal to the animal litter composition.

C/C=C(\C)C=O [RP, 2-methylbut-2-enal]
reduction of anxiety of the cats in pairs ([1]; Day 1 untreated litter (21%) to Day 2 treated litter (12%)): ~50% | Average behavior score: Head in food/H2O dish ([1]; Day 2, RP litter (3% (w/w) beads with 0.02% (w/w) 2-methylbut-2-enal), 24 cat pairs, Day 1 Con 0.90): 1.05 | Average behavior score: Grooming other ([1]; Day 2, RP litter, 24 cat pairs, Day 1 Con 0.03): 0.01 | Average behavior score: In litter box - using ([1]; Day 2, RP litter, 24 cat pairs, Day 1 Con 0.07): 0.27 | Average behavior score: Neutral social interaction ([1]; Day 2, RP litter, 24 cat pairs, Day 1 Con 0.48): 0.33 | Average behavior score: Play ([1]; Day 2, RP litter, 24 cat pairs, Day 1 Con 0.65): 0.52 | Average behavior score: Grooming self ([1]; Day 2, RP litter, 24 cat pairs, Day 1 Con 0.70): 0.77 | Average behavior score: Lying/sitting - touching ([1]; Day 2, RP litter, 24 cat pairs, Day 1 Con 0.89): 0.98 | Average behavior score: Sleeping ([1]; Day 2, RP litter, 24 cat pairs, Day 1 Con 1.98): 2.71 | Average behavior score: In litter box - not using ([1]; Day 2, RP litter, 24 cat pairs, Day 1 Con 2.10): 2.73 | Average behavior score: Aggression ([1]; Day 2, RP litter, 24 cat pairs, Day 1 Con 3.00): 1.95 | Average behavior score: Locomotion ([1]; Day 2, RP litter, 24 cat pairs, Day 1 Con 3.19): 4.66 | Average behavior score: Lying/sitting - not touching ([1]; Day 2, RP litter, 24 cat pairs, Day 1 Con 17.0): 15.4 | Average behavior score: Anxiety (%) ([1]; Day 2, RP litter, 24 cat pairs, percentage of time over 24 hours, Day 1 Con 21.0): 12.0% | Average aggression score by pair, Day 2 (RP) ([1]; Pair 1 (M, M), rank 6, Day 1 (con) 2.92): 0.13 | Average aggression score by pair, Day 2 (RP) ([1]; Pair 2 (M, M), rank 24, Day 1 (con) 0.00): 0.00 | Average aggression score by pair, Day 2 (RP) ([1]; Pair 3 (M, M), rank 4, Day 1 (con) 6.33): 3.42 | Average aggression score by pair, Day 2 (RP) ([1]; Pair 4 (M, M), rank 3, Day 1 (con) 6.50): 0.08 | Average aggression score by pair, Day 2 (RP) ([1]; Pair 5 (M, M), rank 5, Day 1 (con) 3.58): 4.67 | Average aggression score by pair, Day 2 (RP) ([1]; Pair 6 (M, M), rank 13, Day 1 (con) 1.08): 0.13 | Average aggression score by pair, Day 2 (RP) ([1]; Pair 7 (F, F), rank 20, Day 1 (con) 0.04): 0.33 | Average aggression score by pair, Day 2 (RP) ([1]; Pair 8 (F, F), rank 14, Day 1 (con) 0.50): 0.88 | Average aggression score by pair, Day 2 (RP) ([1]; Pair 9 (F, F), rank 19, Day 1 (con) 0.08): 0.08 | Average aggression score by pair, Day 2 (RP) ([1]; Pair 10 (F, F), rank 2, Day 1 (con) 10.13): 3.25 | Average aggression score by pair, Day 2 (RP) ([1]; Pair 11 (F, F), rank 12, Day 1 (con) 1.63): 1.50 | Average aggression score by pair, Day 2 (RP) ([1]; Pair 12 (F, F), rank 23, Day 1 (con) 0.00): 0.00 | Average aggression score by pair, Day 2 (RP) ([1]; Pair 13 (M, M), rank 1, Day 1 (con) 27.00): 18.25 | Average aggression score by pair, Day 2 (RP) ([1]; Pair 14 (M, M), rank 8, Day 1 (con) 2.54): 2.58 | Average aggression score by pair, Day 2 (RP) ([1]; Pair 15 (M, M), rank 7, Day 1 (con) 2.54): 3.83 | Average aggression score by pair, Day 2 (RP) ([1]; Pair 16 (C, M), rank 11, Day 1 (con) 1.63): 0.71 | Average aggression score by pair, Day 2 (RP) ([1]; Pair 17 (M, M), rank 9, Day 1 (con) 2.46): 2.13 | Average aggression score by pair, Day 2 (RP) ([1]; Pair 18 (M, M), rank 10, Day 1 (con) 2.38): 1.88 | Average aggression score by pair, Day 2 (RP) ([1]; Pair 19 (M, M), rank 15, Day 1 (con) 0.33): 0.00 | Average aggression score by pair, Day 2 (RP) ([1]; Pair 20 (F, F), rank 22, Day 1 (con) 0.00): 0.21 | Average aggression score by pair, Day 2 (RP) ([1]; Pair 21 (F, F), rank 18, Day 1 (con) 0.08): 0.92 | Average aggression score by pair, Day 2 (RP) ([1]; Pair 22 (F, F), rank 16, Day 1 (con) 0.17): 0.13 | Average aggression score by pair, Day 2 (RP) ([1]; Pair 23 (F, F), rank 17, Day 1 (con) 0.08): 1.00 | Average aggression score by pair, Day 2 (RP) ([1]; Pair 24 (F, F), rank 21, Day 1 (con) 0.00): 0.63 | litter box weight, Change (RP) ([1]; RP after minus RP before, CON change 0.02): 0.11 | Changes in litter box weights, % difference ([1]; RP change versus CON change): 438% | litter box weight, RP after ([1]; after 24 hours of use, RP before 2.1): 2.21 | reduction of aggression from Day 1 to Day 2 ([1]; aggression score 3.0 to 1.95 after exposure to RP litter): 68.3% | increase of litter box use ([1]; score 0.07 (Day 1 CON) to 0.27 (Day 2 RP)): 386% | duration of positive behavior modification in cats [2]: at least 24 hours
